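Protocol summary: plate cells (96-well), add compound at 5 concentrations, incubate 48 h, interpolate endpoints linearly. At the TGI there is no net growth.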

Some test systems named below: EKVX NSCLC; MDA-MB-435; UO-31 renal; UACC-62 melanoma; MDA-N; SW-620 colon; SK-OV-3 ovarian; OVCAR-8 ovarian; SNB-75 CNS; HT29 colon; 786-0 renal; K-562 leukemia; HOP-62 NSCLC; HOP-92 NSCLC; HCT-116 colon; SK-MEL-2 melanoma; U251 CNS.
What all share (experiment): inhibition of tumour cell growth, NCI panel, 48 h

`CC1OC(OC2C(O)COC(OC3C(C)OC(OC4C(OC(=O)[C@]56CCC(C)(C)C[C@@H]5C5=CCC7[C@@]8(C)C[C@H](O)[C@H](OC9OC(CO)C(O)C(OC%10OC(CO)C(O)C(O)C%10O)C9O)[C@@](C)(CO)[C@@H]8CC[C@@]7(C)[C@]5(C)CC6)OCC(O)C4O)C(O)C3O)C2O)C(O)C(O)C1O` (some centres not stated): the TGI in the test on EKVX NSCLC is 26.1 µM; in the test with MDA-MB-435, 42.1 µM; in the test on UO-31 renal, 16 µM; in the test with UACC-62 melanoma it was 39.8 µM; with MDA-N it was 32 µM; in the test with SW-620 colon, 30.4 µM. The TGI was 30.3 µM in the test with SK-OV-3 ovarian; 32.8 µM in the test on OVCAR-8 ovarian; 35 µM in the test on SNB-75 CNS; 31.5 µM in the test on HT29 colon; 30 µM with 786-0 renal; over 100 µM in the test with K-562 leukemia. For the same compound, the TGI in the test on HOP-62 NSCLC stood at 28.8 µM; with HOP-92 NSCLC, 38.4 µM; in the test on HCT-116 colon, 32.7 µM; in the test with SK-MEL-2 melanoma, 36 µM; in the test on U251 CNS, 32.8 µM.

The values are drawn from PubChem BioAssay (NCI).
